According to paper PMC5225203, “Multiparameter toxicity assessment of novel DOPO-derived organophosphorus flame retardants” (Archives of Toxicology, 2016):

Columns and labels:
[1] = tested on: THP-1 monocytes differentiated into macrophages; experiment: Acute cytotoxicity, MTS reduction, THP-1 macrophages; type: cell-based, human; conditions: 48 h; for concentration producing acute toxicity: MTS; for cell damage (viability, MTS reduction): concentrations as high as 400 µM
Description: The human monocytic cell line THP-1 (ATCC: TIB-202) was grown as cell suspension in complete cell culture medium under standard growth conditions. Subculturing was performed by replacement of the medium when the cell density reached 8 × 10^5 cells/mL. Cell concentrations were not allowed to exceed 10^6 cells/mL. To differentiate THP-1 monocytes into macrophages, cells were grown in the presence of 200 nM phorbol-12-myristate-13-acetate (PMA; Sigma-Aldrich) for 72 h. For viability assessment, 8 × 10^4 cells per well were seeded in 200 µL complete cell culture medium containing 200 nM PMA in a 96-well plate and differentiated for 72 h under standard growth conditions. Thereafter, the medium was removed, the cells were washed twice with pre-warmed phosphate-buffered saline (PBS), and increasing concentrations of flame retardants or CdSO4 were added in 200 µL complete cell culture medium per well for 48 h. CellTiter96® AQueous One Solution (Promega, Switzerland) containing MTS (3-(4,5-dimethylthiazol-2-yl)-5-(3-carboxymethoxy-phenyl)-2-(4-sulfophenyl)-2H) as a water-soluble tetrazolium compound was used according to the manufacturer’s protocol. Absorption was detected at 490 nm.

[2] = tested on: fully differentiated LUHMES cells; experiment: Toxicity in mature central nervous system neurons (neurite mass, viability); type: cell-based, human; conditions: 48 h; for concentration evoking degeneration of neurites: day 6–8, all assays; for influence on neurites / viability: concentrations as high as 100 µM
Description: LUHMES cells are conditionally immortalized human fetal ventral mesencephalic neuronal precursor cells that were obtained by clonal selection. Differentiated LUHMES cells show a clear dopaminergic phenotype, which was described in detail previously (Schildknecht et al. [2009]; Scholz et al. [2011]). Cells were propagated in advanced DMEM/F12 (Gibco/Invitrogen, Darmstadt, Germany) with 1 × N2 supplement (Invitrogen), 2 mM L-glutamine (Gibco), and 40 ng/mL recombinant bFGF (R&D Systems, Minneapolis, MN, USA). The differentiation process was initiated by adding differentiation medium consisting of advanced DMEM/F12, 1 × N2 supplement, 2 mM L-glutamine, 1 mM dibutyryl cAMP (Sigma), 1 µg/mL tetracycline (Sigma), and 2 ng/mL recombinant human GDNF (R + D Systems). After 2 days, cells were trypsinized, collected in advanced DMEM/F12 medium, and seeded onto 24-well plates at a density of 160,000 cells/cm^2. The differentiation process was continued for 4 days. Fully differentiated LUHMES cells were treated with the tested flame retardants for 48 h from day 6 to 8 of differentiation. For visualization of morphology, cells were fixed with 4 % paraformaldehyde for 20 min at room temperature, permeabilized with 0.2 % Triton X-100, washed with PBS, blocked with 1 % BSA (Calbiochem, San Diego, CA, USA) in PBS for 1 h, and stained with a polyclonal anti-β-III-tubulin antibody (Sigma) in 1 % BSA/PBS at 4 °C overnight. After washing, secondary antibodies (anti-mouse-IgG, Alexa 488, Molecular Probes; 1:1000) in 1 % BSA/PBS were added for 1 h, after which nuclei were stained with Hoechst dye H-33342 (1 µg/mL) for 20 min. For visualization, an Olympus IX 81 microscope (Hamburg, Germany) equipped with an F-view CCD camera was used. For quantitative evaluation of the neurite area, β-III-tubulin-stained cells were analyzed using an automated microplate-reading microscope (Array-Scan II® HCS Reader, Cellomics, Pittsburgh, PA, USA) equipped with a Hamamatsu ORCA-ER camera (1024 × 1024 resolution; run at 2 × 2 binning). Nuclei were identified according to their intensity, size, area, and shape. A virtual area corresponding to the cell soma was defined around each nucleus. The total β-III-tubulin pixel area per field minus the soma areas in that field was defined as neurite mass.
[% of total activity ± SD]
[% of total activity± SD]
Suppl. Fig. 7. Toxicity of flame retar dants in central human neurons. Mature human dopaminergic neurons (LUHMES) were treated w ith the different flame retardants in the concentrations as indicated for 48 h from day 6 to day 8 of differentiation. a Cell viability was determined by the resazurin reduction and by the lact ate dehydrogenase release a ssays. b Intracellular levels of ATP and of reduced glutathione (GSH) were measured in parallel.

[3] = tested on: ARE-dependent luciferase expression in KeratinoSens cells; experiment: KeratinoSens skin sensitization assay; type: cell-based; conditions: for cell viability (PrestoBlue) in KeratinoSens cells / ARE-dependent luciferase expression: 48 h; for skin sensitizer classification / ARE-dependent luciferase expression: KeratinoSens
Description: Generation of the stable KeratinoSens™ cell line was previously described in detail (Emter et al. [2010]). KeratinoSens™ cells were maintained in DMEM containing glutamax (Gibco/Invitrogen), 9 % FCS, and 0.5 mg/mL G418. For the experiments, KeratinoSens™ cells were seeded onto 96-well plates at a density of 10,000 cells per well in 125 µL medium without G418. After 24 h, the medium was replaced with 200 µL DMEM containing 1 % FCS and the test compounds. After a 2-day incubation period at 37 °C in an atmosphere containing 5 % CO2, the cells were washed once with PBS and a resazurin reduction assay (PrestoBlue®) was carried out in order to compare the viability of the differently treated groups. Fluorescence intensity was measured at 550 nmex and 590 nmem. After another washing step with PBS, cell lysis was performed using 20 µL/well passive lysis buffer (Promega) for 20 min at room temperature. Luciferase activity was measured by applying 50 µL luciferase substrate automatically to each well and detecting the resulting luminescence. Compounds were considered as skin sensitizers when a statistically significant induction of luciferase activity above a defined threshold of ≥1.5 in the absence of impaired cell viability was observed (Emter et al. [2010]; Natsch et al. [2011]).

SMILES: O=P1(OCCOP2(=O)Oc3ccccc3-c3ccccc32)Oc2ccccc2-c2ccccc21 (stereo not shown) [EG-DOPO, 6,6′-(ethane-1,2-diylbis(oxy))bis(6H-dibenzo[c,e][1,2]oxaphosphinine-6-oxide)]
- concentration producing acute toxicity [1]: > 20 µM
- concentration evoking degeneration of neurites [2]: > 10 µM
- cell viability (PrestoBlue) in KeratinoSens cells [3]: decline in cell viability
- skin sensitizer classification [3]: No specific effects
- ARE-dependent luciferase expression [3]: increase in ARE-dependent luciferase expression

SMILES: Brc1ccc(Oc2cc(Br)c(Br)cc2Br)c(Br)c1 [PBDE-99, reference compound]
- cell damage (viability, MTS reduction) [1]: no signs of cell damage
- concentration evoking degeneration of neurites [2]: > 10 µM
- cell viability (PrestoBlue) in KeratinoSens cells [3]: absence of significant cell death
- increase in ARE-dependent luciferase expression ([3]; at a concentration of 3 µM, in the absence of significant cell death): ca. twofold

SMILES: O=P1(NCCNP2(=O)Oc3ccccc3-c3ccccc32)Oc2ccccc2-c2ccccc21 (stereo not shown) [EDA-DOPO, 6,6′-(ethane-1,2-diylbis(azanediyl))bis(6H-dibenzo[c,e][1,2]oxaphosphinine-6-oxide)]
- cell damage (viability, MTS reduction) [1]: no signs of cell damage
- influence on neurites / viability [2]: no influence
- skin sensitizer classification [3]: No specific effects
- ARE-dependent luciferase expression [3]: neither induced luciferase activity

SMILES: O=P1(NCCOP2(=O)Oc3ccccc3-c3ccccc32)Oc2ccccc2-c2ccccc21 (stereo not shown) [ETA-DOPO, 6-(2-((6-oxido-6H-dibenzo[c,e][1,2]oxaphosphinin-6-yl)amino)ethoxy)-6H-dibenzo[c,e][1,2]oxaphosphinine 6-oxide]
- concentration producing acute toxicity [1]: > 20 µM
- concentration evoking degeneration of neurites [2]: > 10 µM
- cell viability (PrestoBlue) in KeratinoSens cells [3]: decline in cell viability
- skin sensitizer classification [3]: No specific effects
- ARE-dependent luciferase expression [3]: increase in ARE-dependent luciferase expression

SMILES: O=[PH]1Oc2ccccc2-c2ccccc21 (stereo not shown) [DOPO, 9,10-dihydro-9-oxa-10-phosphaphenanthrene-10-oxide]
- cell damage (viability, MTS reduction) [1]: no signs of cell damage
- influence on neurites / viability [2]: no influence
- skin sensitizer classification [3]: No specific effects
- ARE-dependent luciferase expression [3]: neither induced luciferase activity
